Measurements: patent publication US11524966B1 (Valo Early Discovery, Inc., priority 2017, dated 2022)

Biological target: T1, USP28 (His-tagged USP28-FL-mammalian) (Homo sapiens, UniProt Q96RU2)
T1 construct: Expression of USP28 (1-1077)-TEV-6*His (pTT5 vector); made in house; host or cells: Expi293f cells (pTT5 vector)
T1 sequence (Q96RU2 1-1077): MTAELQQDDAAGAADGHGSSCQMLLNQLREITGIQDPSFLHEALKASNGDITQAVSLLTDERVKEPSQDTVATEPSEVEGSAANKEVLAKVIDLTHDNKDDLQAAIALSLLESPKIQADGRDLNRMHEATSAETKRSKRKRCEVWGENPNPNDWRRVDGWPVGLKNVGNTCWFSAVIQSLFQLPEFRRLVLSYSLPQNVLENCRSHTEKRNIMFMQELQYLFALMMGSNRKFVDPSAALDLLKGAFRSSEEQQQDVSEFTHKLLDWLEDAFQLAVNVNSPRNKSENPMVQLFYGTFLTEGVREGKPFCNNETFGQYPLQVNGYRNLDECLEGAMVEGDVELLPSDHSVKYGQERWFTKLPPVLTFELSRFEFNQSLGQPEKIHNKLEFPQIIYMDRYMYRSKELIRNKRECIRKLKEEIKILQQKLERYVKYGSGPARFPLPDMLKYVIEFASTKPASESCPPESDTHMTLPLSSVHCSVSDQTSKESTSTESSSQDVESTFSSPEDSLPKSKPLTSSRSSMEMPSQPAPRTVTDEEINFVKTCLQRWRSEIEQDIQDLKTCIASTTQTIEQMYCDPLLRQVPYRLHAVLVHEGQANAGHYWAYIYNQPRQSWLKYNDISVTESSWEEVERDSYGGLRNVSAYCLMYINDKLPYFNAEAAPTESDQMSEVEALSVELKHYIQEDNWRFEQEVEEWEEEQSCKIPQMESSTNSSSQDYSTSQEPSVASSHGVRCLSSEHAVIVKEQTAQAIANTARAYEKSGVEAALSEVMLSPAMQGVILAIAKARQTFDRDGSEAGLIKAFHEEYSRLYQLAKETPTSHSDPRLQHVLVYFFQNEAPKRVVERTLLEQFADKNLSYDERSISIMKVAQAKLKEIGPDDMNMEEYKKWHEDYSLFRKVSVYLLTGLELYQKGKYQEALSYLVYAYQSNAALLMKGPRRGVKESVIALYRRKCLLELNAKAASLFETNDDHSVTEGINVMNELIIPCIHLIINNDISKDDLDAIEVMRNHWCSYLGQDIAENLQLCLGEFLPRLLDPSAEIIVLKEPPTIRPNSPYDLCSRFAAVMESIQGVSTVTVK
Test: Ubiquitin-Rhodamine 110 Assay for USP28 Activity, Example A-1(a)
Type: biochemical
Details: Ubiquitin-Rhodamine 110 assay, Example A-1(a); read-out: USP28 A-1(a) IC50 range
In short: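 IC50 from 4-parameter logistic fit of percent inhibition versus no-enzyme and DMSO controls; compounds 25 μM to 1.3 nM, 3-fold. Ub-Rh110 cleavage (25 nM, below Km) by […] mammalian-expressed USP28-FL-His ran 45 min at room temperature, stopped with 10 mM citric acid, read ex 485/em 535.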

## CO[C@H]1CN(c2ccc3c(n2)CC[C@H](NC(=O)c2sc4nc(C)ccc4c2N)C3)C[C@H]1N [Example 270, 3-amino-N-[(6S)-2-[(3R,4S)-3-amino-4-methoxypyrrolidin-1-yl]-5,6,7,8-tetrahydroquinolin-6-yl]-6-methylthieno[2,3-b]pyridine-2-carboxamide]
  IC50: 0.05 to 0.2 µM

## CO[C@H]1CCN(c2ccc3c(c2)OC[C@H](NC(=O)c2sc4nc(C)cc(C)c4c2N)C3)C[C@@H]1N [Example 317, 3-amino-N-[(3R)-7-[(3S,4S)-3-amino-4-methoxypiperidin-1-yl]-3,4-dihydro-2H-1-benzopyran-3-yl]-4,6-dimethylthieno[2,3-b]pyridine-2-carboxamide]
  IC50: 0.001 to 0.05 µM

## CO[C@@]1(C)CN(c2ccc3c(n2)OC[C@H](NC(=O)c2sc4nc(C)ccc4c2N)C3)C[C@@H]1N [Example 325, 3-amino-N-[(3R)-7-[(3S,4S)-4-amino-3-methoxy-3-methylpyrrolidin-1-yl]-2H,3H,4H-pyrano[2,3-b]pyridin-3-yl]-6-methylthieno[2,3-b]pyridine-2-carboxamide]
  IC50: 0.05 to 0.2 µM

## CO[C@@]1(C)CN(c2ccc3c(c2)OC[C@H](NC(=O)c2sc4nc(C)ccc4c2N)C3)C[C@@H]1N [Example 281, 3-amino-N-[(3R)-7-[(3S,4S)-4-amino-3-methoxy-3-methylpyrrolidin-1-yl]-3,4-dihydro-2H-1-benzopyran-3-yl]-6-methylthieno[2,3-b]pyridine-2-carboxamide]
  IC50: 0.001 to 0.05 µM

## COC[C@H]1C[C@@H](N)CN1c1ccc2c(c1)OC[C@H](NC(=O)c1sc3nc(C)ccc3c1N)C2 [Example 262, 3-amino-N-[(3R)-7-[(2R,4R)-4-amino-2-(methoxymethyl)pyrrolidin-1-yl]-3,4-dihydro-2H-1-benzopyran-3-yl]-6-methylthieno[2,3-b]pyridine-2-carboxamide]
  IC50: 0.001 to 0.05 µM

## CO[C@@H]1[C@@H](N)CN(c2ccc3c(c2)OC[C@H](NC(=O)c2sc4nc(C)ccc4c2N)C3)[C@H]1C [Example 283, 3-amino-N-[(3R)-7-[(2S,3R,4S)-4-amino-3-methoxy-2-methylpyrrolidin-1-yl]-3,4-dihydro-2H-1-benzopyran-3-yl]-6-methylthieno[2,3-b]pyridine-2-carboxamide]
  IC50: 0.001 to 0.05 µM

## Cc1ccc2c(N)c(C(=O)N[C@H]3COc4cc(N5C[C@@H](N)[C@@H](F)C5)ccc4C3)sc2n1 (single isomer, unassigned) [Example 3-5]
  IC50: 0.001 to 0.05 µM

## CO[C@]12CNC[C@H]1CN(c1ccc3c(c1)OC[C@H](NC(=O)c1sc4nc(C)ccc4c1N)C3)C2 [Example 291, N-[(3R)-7-[(3aS,6aS)-3a-methoxy-octahydropyrrolo[3,4-c]pyrrol-2-yl]-3,4-dihydro-2H-1-benzopyran-3-yl]-3-amino-6-methylthieno[2,3-b]pyridine-2-carboxamide]
  IC50: 0.001 to 0.05 µM

## COC[C@H]1CN(c2nc3c(cc2F)C[C@@H](NC(=O)c2sc4nc(C)ccc4c2N)CC3)C[C@H]1N [Example 301, 3-amino-N-[(6S)-2-[(3S,4S)-3-amino-4-(methoxymethyl)pyrrolidin-1-yl]-3-fluoro-5,6,7,8-tetrahydroquinolin-6-yl]-6-methylthieno[2,3-b]pyridine-2-carboxamide]
  IC50: > 2 µM

## COC[C@H]1CN(c2ccc3c(n2)CC[C@H](NC(=O)c2sc4nc(C)cnc4c2N)C3)C[C@H]1N [Example 299, 7-amino-N-[(6S)-2-[(3S,4S)-3-amino-4-(methoxymethyl)pyrrolidin-1-yl]-5,6,7,8-tetrahydroquinolin-6-yl]-3-methylthieno[2,3-b]pyrazine-6-carboxamide]
  IC50: 0.05 to 0.2 µM

## N#Cc1c(N2CC3CCC(C2)N3)cc2c(c1F)C[C@@H](NC(=O)c1cnc3c(c1)[C@H]1C[C@H]1CN3)CO2 [Example 265, (6aR,7aS)-N-[(3R)-6-cyano-7-{3,8-diazabicyclo[3.2.1]octan-3-yl}-5-fluoro-3,4-dihydro-2H-1-benzopyran-3-yl]-5H,6H,6aH,7H,7aH-cyclopropa[c]1,8-naphthyridine-2-carboxamide]
  IC50: 0.05 to 0.2 µM

## CCO[C@@H]1CN(c2ccc3c(c2)CC[C@H](NC(=O)c2sc4nc(C)ccc4c2N)C3)C[C@@H]1N [Example 267, 3-amino-N-[(2S)-6-[(3S,4R)-3-amino-4-ethoxypyrrolidin-1-yl]-1,2,3,4-tetrahydronaphthalen-2-yl]-6-methylthieno[2,3-b]pyridine-2-carboxamide]
  IC50: 0.05 to 0.2 µM
